The text below walks through data of article PMC7036753, “Lipidated Analogs of the LL-37-Derived Peptide Fragment KR12—Structural Analysis, Surface-Active Properties and Antimicrobial Activity” (International Journal of Molecular Sciences, 2020).

≈ marks a conversion by molar mass, not a printed value. Peptide text beside a SMILES is read from it. * marks the point of attachment. Octanoyl = CCCCCCCC(=O)*

The test system of one test is E. faecium ATCC 700221. Type of test: cell-based, Enterococcus faecium. Particulars: ATCC 700221, 18 h. As to the method:
(§1) Examination of antimicrobial activity of the test compounds was conducted on reference strains of bacteria assigned to ESKAPE group of pathogens: Enterococcus faecium ATCC 700221, Klebsiella pneumoniae ATCC 700603, Acinetobacter baumannii ATCC BAA-1605, Pseudomonas aeruginosa ATCC 9027, Klebsiella aerogenes ATCC 13048 (formerly Enterobacter aerogenes) and reference strains of Staphylococcus aureus, namely: S. aureus ATCC 25923, S. aureus ATCC 6538, S. aureus ATCC 33591 (MRSA), S. aureus ATCC 9144 and S. aureus ATCC 12598. All the strains were stored at −80 °C in Roti®-Store cryo vials (Carl Roth GmbH, Karlsruhe, Germany) and before the tests were transferred into fresh Mueller-Hinton Medium (BioMaxima, Lublin, Poland) and incubated for 24 h at 37 °C. Subsequently, each bacterial inoculum was seeded on Mueller-Hinton Agar plates (BioMaxima) and incubated again for 24 h. The cultures prepared in this way were used in further antimicrobial assays and prepared as described above. The MIC values were determined by the broth microdilution method according to Clinical and Laboratory Standards Institute Protocol. For this purpose, initial inoculums of bacteria (0.5 × 10^5 colony forming unit (CFU)/mL) in Mueller–Hinton Broth were exposed to the ranging concentrations of compounds (0.5–256 µg/mL) and incubated for 18 h at 37 °C. The experiments were conducted on 96-well microtiter plates, with a final volume of 100 µL. Cell densities were adjusted spectrophotometrically (Multiskan™ GO Microplate Spectrophotometer, Thermo Scientific) at 600 nm. The MICs were taken as the lowest drug concentration at which a visible growth of microorganisms was inhibited. All experiments were conducted in triplicate and included positive (growth) and negative (sterility) controls.

Test [1] relates to K. pneumoniae ATCC 700603. Type of test: cell-based, Klebsiella pneumoniae. Particulars: ATCC 700603, 18 h. Here is the method:
as §1

Test [2] deals with A. baumannii ATCC BAA-1605. Type of test: cell-based, Acinetobacter baumannii. Particulars: ATCC BAA-1605, 18 h. Here is the method: as §1
In another test the test system is P. aeruginosa ATCC 9027. Type of test: cell-based, Pseudomonas aeruginosa. The settings on record: ATCC 9027, 18 h. As to the method:
as §1

In another test the test system is K. aerogenes ATCC 13048. In kind it is cell-based, Klebsiella aerogenes. Particulars: ATCC 13048, 18 h. As to the method: as §1
The test system of a further test is S. aureus ATCC 12598. Type of test: cell-based, Staphylococcus aureus. The settings on record: ATCC 12598, 18 h. As to the method: as §1
Another test concerns S. aureus ATCC 25923. Type of test: cell-based, Staphylococcus aureus. Particulars: ATCC 25923, 18 h. As to the method: as §1
Test [3] relates to S. aureus ATCC 33591 (MRSA). Type of test: cell-based, Staphylococcus aureus. Particulars: ATCC 33591, 18 h. As to the method:
as §1

A further test concerns S. aureus ATCC 6538. In kind it is cell-based, Staphylococcus aureus. Particulars: ATCC 6538, 18 h. Here is the method: as §1
A further test relates to S. aureus ATCC 9144. Type of test: cell-based, Staphylococcus aureus. The settings on record: ATCC 9144, 18 h. Here is the method: as §1
Test [4] deals with S. aureus ATCC 12598 biofilm. In kind it is cell-based, Staphylococcus aureus. The settings on record: ATCC 12598, 24 h. Here is the method: (§2) The MBECs values were determined according to the method reported previously. Briefly, 24-h cultures of S. aureus, namely: S. aureus ATCC 25923, S. aureus ATCC 6538, S. aureus ATCC 33591 (MRSA), S. aureus ATCC 9144 and S. aureus ATCC 12598 were diluted to a concentration of 0.5 × 10^7 CFU/mL and added to the test wells of polystyrene microdilution flat-bottom plates. After 24-h of incubation at 37 °C, the wells were rinsed three times with PBS to remove non-adherent cells. Subsequently, 100 μL of the test compounds over a concentration range 0.5–256 µg/mL were added to each well and incubated again for 24 h at 37 °C. After this period, 20 μL of the resazurin (7-hydroxy-3H-phenoxazin-3-one-10-oxide, 4 mg/mL) solution was added to each well. After 1 h of incubation, the MBECs were read out. The determined values were recorded as the lowest concentration at which the reduction of resazurin (from blue to pink) was lower or equal to 10 ± 0.5% as compared to the positive (100%) and negative (0%) controls. All experiments were performed in triplicate.

In test [5] the test system is S. aureus ATCC 25923 biofilm. Type of test: cell-based, Staphylococcus aureus. Particulars: ATCC 25923, 24 h. Here is the method:
as §2

The test system of test [6] is S. aureus ATCC 33591 (MRSA) biofilm. Type of test: cell-based, Staphylococcus aureus. The settings on record: ATCC 33591, 24 h. As to the method:
as §2

Test [7] has as its system S. aureus ATCC 6538 biofilm. In kind it is cell-based, Staphylococcus aureus. Particulars: ATCC 6538, 24 h. Here is the method: as §2
Test [8] concerns S. aureus ATCC 9144 biofilm. In kind it is cell-based, Staphylococcus aureus. The settings on record: ATCC 9144, 24 h. As to the method:
as §2

Test [9] has as its system human keratinocytes (HaCaT). Type of test: cell-based. Particulars: 24 h. Here is the method: The cytotoxicity of test compounds (IC50) was evaluated for human keratinocytes (HaCaT, ATCC) using classic MTT assay on 96-well plates. In this assay, a colorimetric determination of the cell metabolic activity was carried out. Specifically, the color intensity reflects the number of live cells that can be measured spectrophotometrically. […] A day after plating 500 cells per well, a series of concentrations (0.5–500 μg/mL) of the test compounds were added. Dimethyl sulfoxide (DMSO) was used as a control in cells at a final concentration of 1.0% (v/v), which was related to the maximal concentration of the solvent compounds used in the experiment. After 24 h of incubation with test compounds, a medium containing 1 mg/mL of MTT was added up to a final concentration of 0.5 mg/mL and subsequently incubated at 37 °C for 4 h. Then, the medium was aspirated and the formazan product was solubilized with DMSO. The background absorbance at 630 nm was subtracted from that at 570 nm for each well (Epoch, BioTek Instruments, Winooski, VT, USA). Six replicates were conducted for each concentration. All experiments were repeated at least twice and the resulting IC50 values were calculated with a GraFit 7 software (v. 7.0, Erithacus, Berkley, CA, USA).

In a further test the test system is ESKAPE strains. In kind it is cell-based. Particulars: 24 h. Here is the method:
as §1, with “For this purpose, initial inoculums of bacteria (0.5 × 10^5 colony forming unit (CFU)/mL) in Mueller–Hinton Broth were exposed to the ranging concentrations of compounds (0.5–256 µg/mL) and incubated for 18 h at 37 °C.” left out, “The MICs were taken as the lowest drug concentration at which a visible growth of microorganisms was inhibited. All experiments were conducted in triplicate and included positive (growth) and negative (sterility) controls.” left out

The subject of test [10] is reference strains of S. aureus. In kind it is cell-based, Staphylococcus aureus. The settings on record: reference strains of, 24 h. As to the method:
as §1, with “For this purpose, initial inoculums of bacteria (0.5 × 10^5 colony forming unit (CFU)/mL) in Mueller–Hinton Broth were exposed to the ranging concentrations of compounds (0.5–256 µg/mL) and incubated for 18 h at 37 °C.” left out

Test [11] has as its system biofilm of S. aureus strains. Put plainly: MBEC over reference strains of S. aureus. In kind it is cell-based, Staphylococcus aureus. Here is the method:
as §2

On to `CCCCCCCC(=O)N[C@@H](CCCCN)C(=O)N[C@@H](CCCNC(=N)N)C(=O)N[C@H](C(=O)N[C@H](C(=O)N[C@@H](CCC(N)=O)C(=O)N[C@@H](CCCNC(=N)N)C(=O)N[C@H](C(=O)N[C@@H](CCCCN)C(=O)N[C@@H](CC(=O)O)C(=O)N[C@@H](Cc1ccccc1)C(=O)N[C@@H](CC(C)C)C(=O)N[C@@H](CCCNC(=N)N)C(N)=O)[C@@H](C)CC)C(C)C)[C@@H](C)CC` [IV, C8-KR12-NH2] (Octanoyl-KRIVQRIKDFLR-NH2), for which the minimum inhibitory concentration (MIC) in the test with E. faecium ATCC 700221 was 1 µg/mL (≈ 0.589 µM); in test [1], 2 µg/mL (≈ 1.18 µM); in test [2], 2 µg/mL (≈ 1.18 µM); in the test on P. aeruginosa ATCC 9027, 2 µg/mL (≈ 1.18 µM); against K. aerogenes ATCC 13048, 2 µg/mL (≈ 1.18 µM); in the test with S. aureus ATCC 12598, 4 µg/mL (≈ 2.36 µM). In addition, the MIC (against S. aureus ATCC 25923; in test [3]; in the test with S. aureus ATCC 6538; in the test with S. aureus ATCC 9144) was 2 µg/mL (≈ 1.18 µM) in each case. In addition, the MBEC in [4] is given as 4 µg/mL; in test [5] it was 8 µg/mL; in test [6], 4 µg/mL; in test [7] it was 16 µg/mL; in test [8], 4 µg/mL. For the same molecule, the IC50 in test [9] was determined as 3.23 µg/mL (≈ 1.9 µM). Further, in the test on ESKAPE strains, the MIC range was 1 to 4 µg/mL. The “GM (geometric mean of the MIC values against S. aureus)” value in [10] turned out to be 2.30 µg/mL. Further, the MBEC range in test [11] lay within 4 to 16 µg/mL.
